In US20070293491A1, “INDAZOLE COMPOUNDS AND METHODS FOR INHIBITION OF CDC7” (NOVARTIS VACCINES AND DIAGNOSTICS, INC., priority 2006, published 2007) one finds inhibition data, which are given here for 15 compounds.

SMILES strings stand for the structures.

In general, inhibition refers to the relative decrease from the control value, in per cent.

Chain of cdc7/dbf4 (O00311 whole entry): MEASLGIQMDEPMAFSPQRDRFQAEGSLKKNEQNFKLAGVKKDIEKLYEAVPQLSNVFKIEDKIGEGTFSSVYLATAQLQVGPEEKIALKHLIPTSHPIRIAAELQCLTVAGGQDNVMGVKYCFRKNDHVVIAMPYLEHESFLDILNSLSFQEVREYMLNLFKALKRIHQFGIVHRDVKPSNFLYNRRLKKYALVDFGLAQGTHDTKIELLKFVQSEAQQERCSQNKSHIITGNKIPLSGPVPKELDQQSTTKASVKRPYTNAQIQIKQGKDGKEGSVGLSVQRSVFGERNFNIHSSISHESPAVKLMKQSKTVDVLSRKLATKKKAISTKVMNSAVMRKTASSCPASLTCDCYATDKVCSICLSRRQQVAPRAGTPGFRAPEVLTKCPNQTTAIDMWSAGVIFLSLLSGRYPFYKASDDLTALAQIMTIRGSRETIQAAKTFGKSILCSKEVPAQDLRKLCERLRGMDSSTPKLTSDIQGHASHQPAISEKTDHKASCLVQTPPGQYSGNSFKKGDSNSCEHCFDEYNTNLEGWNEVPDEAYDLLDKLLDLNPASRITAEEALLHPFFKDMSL
Chain of cdc7/dbf4 (Q9UBU7 whole entry partner): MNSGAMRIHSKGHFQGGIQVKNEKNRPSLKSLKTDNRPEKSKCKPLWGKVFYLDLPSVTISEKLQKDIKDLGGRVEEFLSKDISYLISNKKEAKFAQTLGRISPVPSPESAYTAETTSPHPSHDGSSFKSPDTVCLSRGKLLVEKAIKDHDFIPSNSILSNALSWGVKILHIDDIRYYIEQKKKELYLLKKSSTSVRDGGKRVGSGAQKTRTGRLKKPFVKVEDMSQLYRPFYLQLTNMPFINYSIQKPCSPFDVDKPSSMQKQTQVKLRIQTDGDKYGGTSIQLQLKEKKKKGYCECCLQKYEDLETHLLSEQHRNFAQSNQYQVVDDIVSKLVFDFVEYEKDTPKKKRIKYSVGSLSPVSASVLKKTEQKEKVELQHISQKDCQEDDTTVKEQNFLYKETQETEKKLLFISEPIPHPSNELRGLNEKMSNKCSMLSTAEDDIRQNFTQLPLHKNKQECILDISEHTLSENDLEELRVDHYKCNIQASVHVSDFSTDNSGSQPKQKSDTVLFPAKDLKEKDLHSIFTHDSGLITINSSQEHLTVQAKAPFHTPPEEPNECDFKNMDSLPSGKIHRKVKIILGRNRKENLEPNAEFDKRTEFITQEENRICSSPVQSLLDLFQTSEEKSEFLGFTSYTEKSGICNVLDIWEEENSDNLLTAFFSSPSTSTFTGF

For the first assay, the target named is cdc7/dbf4 (Homo sapiens, UniProt O00311). Kind of assay: In vitro assay of CDC7/DBF4 inhibition (phosphoserine 108-MCM-2 detection, donor/acceptor beads). It is filed as biochemical. The note with it: Test Concentration 0.93 μM; 0.5 μM ATP solution, MCM-2 substrate, 1 hr room temperature. The method, then:
A 20.5 μL kinase reaction was performed on OptiPlate-384 plates PerkinElmer, 6007290) as follows by sequential addition of: 0.5 μL of test compounds of the invention in DMSO, 10 μL 0.5 μM ATP in reaction buffer, 10 μL 2.2 nM cdc7/dbf4 baculovirus derived), 4.4 nM MCM-2 in a reaction buffer. The reaction proceeded for 1 hr at room temperature on an orbital shaker. The reaction was terminated by addition of 10 μL detection buffer containing Streptavidin-coated donor beads and Protein A conjugated acceptor beads (54 μg/ml), and 1:4000 diluted rabbit antibody against phosphoserine 108-MCM-2 (Bethyl Labs). The mixture was incubated at room temperature for 4 hrs in the dark. The plate was then read on a PerkinElmer Fusion instrument. The reaction buffer contained 50 mM Hepes (pH 7.2-7.5), 10 mM MgCl2, 1 mM dithiothreitol (DTT), leupeptin (10 μg/ml), and bovine serum albumin (BSA) (0.2 mg/ml). The detection buffer contained 25 mM Tris (pH 7.5), 400 mM NaCl, 100mM EDTA, 0.3% BSA, and 0.05% Tween 20.
Representative compounds of the invention which inhibited the kinase reaction >70% in the above cdc7/db4 assay were selected for further analysis and confirmation. Test compounds were diluted in DMSO to a concentration of 0.93 μM or 1.39 μM and 0.5 μL of each test solution was added to wells for assay using the assay conditions and methods as described above.
The compound `O=c1nc(-c2ccc3[nH]ncc3c2)cc(-c2cccc(F)c2)[nH]1` [Example 2, 6-(3-fluorophenyl)-4-(1H-indazol-5-yl)pyrimidin-2(1H)-one] gave an inhibition at 0.93 µM (stock) of 82%. Turning to `COc1ccc(-c2cc(-c3ccc4[nH]ncc4c3)nc(=O)[nH]2)c(F)c1` [Example 3, 6-(2-fluoro-4-methoxyphenyl)-4-(1H-indazol-5-yl)pyrimidin-2(1H)-one], the inhibition at 0.93 µM (stock) worked out at 81%. With `COc1ccc(OC)c(-c2cc(-c3ccc4[nH]ncc4c3)nc(=O)[nH]2)c1` [Example 4, 6-(2,5-dimethoxyphenyl)-4-(1H-indazol-5-yl)pyrimidin-2(1H)-one], the inhibition at 0.93 µM (stock) amounted to 94%. The same measure, in the same setting: as for `COc1ccc(-c2cc(-c3ccc4[nH]ncc4c3)nc(=O)[nH]2)cc1F` [Example 5, 6-(3-fluoro-4-methoxyphenyl)-4-(1H-indazol-5-yl)pyrimidin-2(1H)-one], the figure is 75%; as for `CCc1ccc(-c2cc(-c3ccc4[nH]ncc4c3)nc(=O)[nH]2)cc1` [Example 6, 6-(4-ethylphenyl)-4-(1H-indazol-5-yl)pyrimidin-2(1H)-one], 83%; as for `COc1ccc(-c2cc(-c3ccc4[nH]ncc4c3)nc(=O)[nH]2)cc1OC` [Example 7, 6-(3,4-dimethoxyphenyl)-4-(1H-indazol-5-yl)pyrimidin-2(1H)-one], 62%. The same measure, in the same setting: as for `O=c1nc(-c2ccc3[nH]ncc3c2)cc(-c2cccc(C(F)(F)F)c2)[nH]1` [Example 8, 4-(1H-indazol-5-yl)-6-[3-(trifluoromethyl)phenyl]pyrimidin-2(1H)-one], the figure is 55%. `O=c1nc(-c2ccc3[nH]ncc3c2)cc(-c2ccccc2F)[nH]1` [Example 9, 6-(2-fluorophenyl)-4-(1H-indazol-5-yl)pyrimidin-2(1H)-one] returned an inhibition at 0.93 µM (stock) of 87%. `O=c1nc(-c2ccc3[nH]ncc3c2)cc(-c2cccc(Cl)c2)[nH]1` [Example 10, 6-(3-chlorophenyl)-4-(1H-indazol-5-yl)pyrimidin-2(1H)-one] registered an inhibition at 0.93 µM (stock) of 98%. Turning to `O=c1nc(-c2ccc3[nH]ncc3c2)cc(-c2ccc(OCc3ccccc3)cc2)[nH]1` [Example 15, 6-[4-(benzyloxy)phenyl]-4-(1H-indazol-5-yl)pyrimidin-2(1H)-one], the inhibition at 0.93 µM (stock) is 58%. Take `O=c1nc(-c2ccc3[nH]ncc3c2)cc(-c2ccc(N3CCNCC3)cc2)[nH]1` [Example 16, 4-(1H-indazol-5-yl)-6-(4-piperazin-1-ylphenyl)pyrimidin-2(1H)-one]: the inhibition at 0.93 µM (stock) stood at 94%.

The same assay, now with this note: Test Concentration 1.39 μM; 0.5 μM ATP solution, MCM-2 substrate, 1 hr room temperature.
`O=c1nc(-c2ccc3[nH]ncc3c2)cc(-c2ccccc2)[nH]1` [Example 11, 4-(1H-indazol-5-yl)-6-phenylpyrimidin-2(1H)-one] returned an inhibition at 1.39 µM (stock) of 98%. Compound `O=c1nc(-c2ccc3[nH]ncc3c2)cc(-c2cccc(OCc3ccccc3)c2)[nH]1` [Example 12, 6-[3-(benzyloxy)phenyl]-4-(1H-indazol-5-yl)pyrimidin-2(1H)-one] yielded an inhibition at 1.39 µM (stock) of 98%.

Consider `O=c1nc(-c2ccc3[nH]ncc3c2)cc(-c2ccc(N3CCOCC3)cc2)[nH]1` [Example 13, 4-(1H-indazol-5-yl)-6-(4-morpholin-4-ylphenyl)pyrimidin-2(1H)-one], for which the inhibition at 1.39 µM (stock) was determined as 92%. On the same count and under the same terms, as for `O=c1nc(-c2ccc3[nH]ncc3c2)cc(-c2ccc(Oc3ccccc3)cc2)[nH]1` [Example 14, 4-(1H-indazol-5-yl)-6-(4-phenoxyphenyl)pyrimidin-2(1H)-one], the figure is 84%.
